Reference: patent US20220073496A1, “NOVEL QUINOLINE DERIVATIVE INHIBITOR” (Nanjing Transthera Biosciences Co., Ltd., priority 2018, published 2022)

Columns and labels:
Mer (h) = molecular target: T1, Mer (h) (Homo sapiens, UniProt Q12866); assay: Enzymatic activity test, Mer (h); type: biochemical; settings: 10 μM [γ-33P]-ATP, 40 minutes, room temperature
T1 construct: purchased
T1 sequence (Q12866 21-999): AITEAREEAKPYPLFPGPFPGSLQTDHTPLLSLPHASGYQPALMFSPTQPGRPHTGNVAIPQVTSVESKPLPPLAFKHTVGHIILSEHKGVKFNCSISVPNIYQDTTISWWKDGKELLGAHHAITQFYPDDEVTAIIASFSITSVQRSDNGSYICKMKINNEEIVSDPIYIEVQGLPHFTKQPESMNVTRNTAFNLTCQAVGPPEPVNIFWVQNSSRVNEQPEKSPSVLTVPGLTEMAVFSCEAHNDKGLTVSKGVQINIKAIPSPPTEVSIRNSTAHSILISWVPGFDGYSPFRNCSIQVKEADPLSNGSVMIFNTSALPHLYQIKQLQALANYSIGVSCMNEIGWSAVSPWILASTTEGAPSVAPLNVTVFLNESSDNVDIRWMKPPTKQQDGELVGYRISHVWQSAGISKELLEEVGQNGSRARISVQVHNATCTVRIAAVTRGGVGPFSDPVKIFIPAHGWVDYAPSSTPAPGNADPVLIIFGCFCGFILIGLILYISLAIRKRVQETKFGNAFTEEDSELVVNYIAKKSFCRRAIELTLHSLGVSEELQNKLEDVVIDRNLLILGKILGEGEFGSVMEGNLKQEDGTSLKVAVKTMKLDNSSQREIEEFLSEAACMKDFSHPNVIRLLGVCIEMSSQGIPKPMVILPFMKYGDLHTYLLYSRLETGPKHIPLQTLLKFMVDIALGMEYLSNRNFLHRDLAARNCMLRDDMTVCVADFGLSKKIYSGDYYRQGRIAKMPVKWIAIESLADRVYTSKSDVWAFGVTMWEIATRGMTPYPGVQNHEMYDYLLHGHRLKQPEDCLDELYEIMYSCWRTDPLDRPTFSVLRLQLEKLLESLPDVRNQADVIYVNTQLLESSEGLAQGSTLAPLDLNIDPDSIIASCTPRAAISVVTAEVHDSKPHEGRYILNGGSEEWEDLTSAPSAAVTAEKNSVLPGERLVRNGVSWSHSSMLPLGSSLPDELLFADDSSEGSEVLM
Description: Assay 3: Enzymatic Activity Test of the Compounds of the Present Invention
Test substances: the compounds of the present invention, wherein the structures and preparations thereof were as described above.
(1) Preparation of the Compound Stock Solution
The compound was dissolved in 100% DMSO to prepare a stock solution with a maximum concentration of 500 μM.
(2) Preparation of the Compound Working Solution
The compound stock solution was diluted to final concentrations of 500, 150, 50, 15, 5, 1.5, 0.5, 0.15 and 0.05 μM to become the compound working solutions (50×).
(3) Preparation of Different Enzyme Reaction Solutions
The Mer (h) enzyme was dissolved in 8 mM MOPS (pH 7.0), 0.2 mM EDTA, 30 mM NaCl, and 250 μM GGMEDIYFEFIVIGGKKK to prepare an enzyme solution having a final concentration of 3.1 nM. The enzymatic reaction was activated by using 10 mM magnesium acetate and 10 μM [γ-^33P]-ATP to form an Mg/ATP mixed solution.
In a 384-well plate, the compound working solution was added to final concentrations of 10000, 3000, 1000, 300, 100, 30, 10, 3, and 1 nM. Then different enzyme reaction solutions prepared according to the above conditions were added. The incubation was carried out for 40 minutes at room temperature. The test was terminated by the addition of a 0.5% phosphoric acid solution. 10 μL of the reaction solution was taken and dropped to the P30 filter paper. The filter paper was washed 4 times with 0.425% phosphoric acid solution and once with methanol, and then placed on a scintillation counter. The […] IC50 values were calculated using GraphPad 5.0 software.

H1299 cell pMer = molecular target: T2, H1299 cell pMer (Homo sapiens, UniProt Q12866); assay: Inhibitory activity on the cell pMer (Western Blot); type: cell-based; settings: H1299 cells, compound 0.35, 1.1, 3.3, 10 nM, Human MerMab 200 ng/mL
T2 construct: The H1299 cells were inoculated in a 6-well plate; endogenous in cells; host or cells: H1299
T2 sequence (Q12866 21-999): T1 sequence (Q12866 21-999)
Description: Assay 6: Test for Inhibitory Activities of the Compounds of the Present Invention on the Cell pMer
H1299 is a non-small cell lung cancer cell.
Test substances: the compounds of the present invention, wherein the structures thereof were as described above.
Test equipment: protein electrophoresis apparatus (manufactured by Bio Rad), transfer unit (manufactured by Bio Rad), exposure unit (manufactured by Tanon), CO2 cell incubator (manufactured by Thermo).
The H1299 cells were inoculated in a 6-well plate (containing 10% FBS 1640 medium, 5×10^5 cells per well), and adherent cells were cultivated at 37° C. in a 5% CO2 condition for 18 hours. The cells were starved overnight. Different concentrations of compounds were added. The final compound concentrations were 0.35, 1.1, 3.3 and 10 nM, and the final DMSO content was 1‰. The negative control wells contained the medium containing 1‰ DMSO. After incubating at 37° C. in a 5% CO2 condition for 60 minutes, Human MerMab (R&D, final concentration 200 ng/mL) was added to each well. After further incubating for 60 minutes, the cell total protein was extracted for Western Blot and the IC50 values were calculated using GraphPad 5.0 software. The inhibitory activity of the compound on the cell pMer was examined.

IC50 (Mer (h)): 2 nM
IC50 (H1299 cell pMer): < 3.3 nM
SMILES: COc1cc2nccc(Oc3ccc(NC(=O)c4cn(C(C)C)nc(-c5ccc(F)cc5)c4=O)nc3)c2cc1OC [Compound 41, N-(5-((6,7-dimethoxyquinolin-4-yl)oxy)pyridin-2-yl)-6-(4-fluorophenyl)-2-isopropyl-5-oxo-2,5-dihydropyridazine-4-carboxamide]
